Source: paper PMC9037111, “Structure-based design, synthesis, and biological evaluation of novel piperine–resveratrol hybrids as antiproliferative agents targeting SIRT-2” (RSC Advances, 2021)
Read-outs that look alike come from different tables or passages of the source.

Columns and labels:
Experiment in all cases: cells
Parameters in all cases: species or system NCI-60 human tumour cell lines; NCI-60 one-dose screen at 10 uM, percent growth inhibition versus untreated control cells
CCRF-CEM = details: Homo sapiens, CCRF-CEM, growth inhibition, one dose
HCT-15 = details: Homo sapiens, HCT-15, growth inhibition, one dose
MCF7 = details: Homo sapiens, MCF7, growth inhibition, one dose
NCI-H522 = details: Homo sapiens, NCI-H522, growth inhibition, one dose
UO-31 = details: Homo sapiens, UO-31, growth inhibition, one dose
HL-60(TB) = details: Homo sapiens, HL-60, growth inhibition, one dose
NCI-H322M = details: Homo sapiens, NCI-H322M, growth inhibition, one dose
SF-539 = details: Homo sapiens, SF-539, growth inhibition, one dose
ACHN = details: Homo sapiens, ACHN, growth inhibition, one dose
DU-145 = details: Homo sapiens, DU-145, growth inhibition, one dose
HOP-62 = details: Homo sapiens, HOP-62, growth inhibition, one dose
NCI-H226 = details: Homo sapiens, NCI-H226, growth inhibition, one dose
NCI-H460 = details: Homo sapiens, NCI-H460, growth inhibition, one dose
OVCAR-5 = details: Homo sapiens, OVCAR-5, growth inhibition, one dose
[1] = read-out: Growth% inhibition / 5d
[2] = read-out: Growth% inhibition / 5a
[3] = read-out: Growth% inhibition / 5b
[4] = read-out: Growth% inhibition / 5e
[5] = read-out: Growth% inhibition / 5h

CN(C)c1ccc(C=NNC(=O)/C=C/C=C/c2ccc3c(c2)OCO3)cc1 (mixture of isomers) [5d, (2E,4E)-5-(Benzo[d][1,3]dioxol-5-yl)-N′-((E/Z)-4-(dimethylamino)-benzylidene)penta-2,4-dienehydrazide]
inhibition at 10 µM (CCRF-CEM; [1]): 20.5% | inhibition at 10 µM (HCT-15; [1]): 24.2% | inhibition at 10 µM (MCF7; [1]): 43.6% | inhibition at 10 µM (NCI-H522; [1]): 11.7% | inhibition at 10 µM (UO-31; [1]): 23.7%

O=C(/C=C/C=C/c1ccc2c(c1)OCO2)NN=Cc1ccc(O)cc1 [5a, (2E,4E)-5-(Benzo[d][1,3]dioxol-5-yl)-N′-((E,Z)-4-hydroxybenzylidene)penta-2,4-dienehydrazide]
inhibition at 10 µM (CCRF-CEM; [2]): 32.4% | inhibition at 10 µM (HCT-15; [2]): 39.7% | inhibition at 10 µM (HL-60(TB); [2]): 44.1% | inhibition at 10 µM (MCF7; [2]): 28.8% | inhibition at 10 µM (NCI-H322M; [2]): 18.5% | inhibition at 10 µM (NCI-H522; [2]): 22.8% | inhibition at 10 µM (SF-539; [2]): 17.6% | inhibition at 10 µM (UO-31; [2]): 39.2%

O=C(/C=C/C=C/c1ccc2c(c1)OCO2)N/N=C/c1ccc(O)cc1O [5b, (2E,4E)-5-(Benzo[d][1,3]dioxol-5-yl)-N′-((E)-2,4-dihydroxybenzylidene)penta-2,4-dienehydrazide]
inhibition at 10 µM (ACHN; [3]): 85.6% | inhibition at 10 µM (CCRF-CEM; [3]): 81% | inhibition at 10 µM (DU-145; [3]): 50% | inhibition at 10 µM (HCT-15; [3]): 83% | inhibition at 10 µM (HOP-62; [3]): 72.9% | inhibition at 10 µM (MCF7; [3]): 85.9% | inhibition at 10 µM (NCI-H226; [3]): 62.4% | inhibition at 10 µM (NCI-H322M; [3]): 82.2% | inhibition at 10 µM (NCI-H460; [3]): 86% | inhibition at 10 µM (NCI-H522; [3]): 78.9% | inhibition at 10 µM (OVCAR-5; [3]): 57.5% | inhibition at 10 µM (SF-539; [3]): 85.7% | inhibition at 10 µM (UO-31; [3]): 88.6%

CCN(CC)c1ccc(/C=N/NC(=O)/C=C/C=C/c2ccc3c(c2)OCO3)c(O)c1 [5e, (2E,4E)-5-(Benzo[d][1,3]dioxol-5-yl)-N′-((E)-4-(diethylamino)-2-hydroxybenzylidene)penta-2,4-dienehydrazide]
inhibition at 10 µM (ACHN; [4]): 74.4% | inhibition at 10 µM (CCRF-CEM; [4]): 78.3% | inhibition at 10 µM (DU-145; [4]): 46.8% | inhibition at 10 µM (HCT-15; [4]): 78.7% | inhibition at 10 µM (HL-60(TB); [4]): 97.3% | inhibition at 10 µM (HOP-62; [4]): 71.5% | inhibition at 10 µM (MCF7; [4]): 80.5% | inhibition at 10 µM (NCI-H226; [4]): 50.5% | inhibition at 10 µM (NCI-H322M; [4]): 66.8% | inhibition at 10 µM (NCI-H460; [4]): 80.2% | inhibition at 10 µM (NCI-H522; [4]): 87.5% | inhibition at 10 µM (OVCAR-5; [4]): 39.1% | inhibition at 10 µM (SF-539; [4]): 77.3% | inhibition at 10 µM (UO-31; [4]): 75%

C/C(=N\NC(=O)/C=C/C=C/c1ccc2c(c1)OCO2)c1ccc(Br)cc1 [5h, (2E,4E)-5-(Benzo[d][1,3]dioxol-5-yl)-N′-((E)-1-(4-bromophenyl)ethylidene)penta-2,4-dienehydrazide]
inhibition at 10 µM (ACHN; [5]): 24.1% | inhibition at 10 µM (CCRF-CEM; [5]): 44.3% | inhibition at 10 µM (DU-145; [5]): 44% | inhibition at 10 µM (HCT-15; [5]): 36.3% | inhibition at 10 µM (HL-60(TB); [5]): 15.9% | inhibition at 10 µM (HOP-62; [5]): 33.2% | inhibition at 10 µM (MCF7; [5]): 38.7% | inhibition at 10 µM (NCI-H226; [5]): 24.1% | inhibition at 10 µM (NCI-H322M; [5]): 36.5% | inhibition at 10 µM (NCI-H460; [5]): 60.4% | inhibition at 10 µM (NCI-H522; [5]): 19.9% | inhibition at 10 µM (OVCAR-5; [5]): 10.7% | inhibition at 10 µM (SF-539; [5]): 12.5% | inhibition at 10 µM (UO-31; [5]): 44.9%
